Laboratory results published in patent publication US6790644B2, “1,3-dicarbonyl-dioxygenase—a new c-c-bond cleaving enzyme” (Biocatalytics, Inc., priority 2001, dated 2004).
Where two headings read alike, the source gives them in different places. Values belong to the compound of their own block, whether it stands above or below them.

Tests used:
[1] = molecular target: T1, 1,3-dicarbonyl-dioxygenase (Acinetobacter johnsonii, UniProt Q8GNT2); assay: Determination of enzyme-activity and stability versus pH and additives; assay type: physicochemical
Experimental: Activity measurements were performed with the oxygen-electrode, with KH2PO4-buffers adjusted to various pH-values [5.0-9.0]. For stability measurements, the enzyme was diluted ten-fold and incubated at various pH-values [5.0-9.0]. The activity was measured periodically with the UV-activity-assay.

[2] = molecular target: T1, 1,3-dicarbonyl-dioxygenase; assay: Substrate spectrum / apparent kinetic constants of purified 1,3-dicarbonyl-dioxygenase (UV assay and oxygen electrode); conditions: for KO2: polarographic, estimated from rate of oxygen depletion, substrate 0.5-1 mM; for O2/Substrate: oxygen consumed per substrate, oxygen electrode
Experimental: (§1) The reaction rates were determined by using the microcomputer regression program provided with the spectrophotometer (Winspec) based on the first ten absorbance measurements made at 5-s intervals.
Substrates were dissolved at a concentration of 0.001-1 mM in KH2PO4-buffer, 50 mM, pH 7.5 using a 10 mM stock solution. Duplicate absorption-measurements of 20 different dilutions were performed at 25° C. The molar absorption coefficients were calculated by linear regression.
(§2) Oxygen consumption during the enzyme reaction was measured with an oxygen-electrode-cell (Digital Oxygen System Model 10, Rank Brothers Ltd., Cambridge, England) as described previously (Beechey, R. B. and Ribbons, D. W. (1971). ‘Methods in Microbiology’.V. 6B. Edited by J. R. Norris and D. W. Ribbons. Academic press, London. ‘Oxygen electrode measurements’ (Chapter II) pp. 29-52.). The reaction mixture contained air-saturated KH2PO4-buffer, 50 mM, pH 7.5 at 25° C. (thermostat). The oxygen-electrode was calibrated by the sodium-sulfite-method. Varying concentrations of substrate (0.01-0.3 mM) were added and the resulting decrease of oxygen was determined.
Assuming the Michaelis-Menten-equation, Vmax and Ks values were calculated by non-linear curve-fit by the program microcal-origin. KO2 was estimated by polarographic methods, adding non limiting amounts of substrate (0.5-1 mM) and graphically determining the oxygen concentration at the point of half of the maximum activity. Ks-values were similarly confirmed by polarographic methods, by stepwise addition of substrate to a final concentration of 20-150 μM.

[3] = molecular target: T1, 1,3-dicarbonyl-dioxygenase; assay: Products of various substrates determined by HPLC (cleavage stoichiometry, partially purified enzyme); assay type: biochemical; conditions: 25° C., one hour; for Substrate % (remaining): remaining substrate calculated; for Acetate % / Methylglyoxal %: oxygen saturated buffer
Description: The products of the enzyme reaction were identified directly from the reaction mixture by in situ ^1H-NMR-spectroscopy (Pokorny, D., L. Brecker, M. Pogorevc, H. Griengl, W. Steiner, T. Kappe, and D. W. Ribbons. 1999. Proton-Nuclear Magnetic Resonance Analyses of the Substrate Specificity of a β-Ketolase from Pseudomonas putida, Acetopyruvate Hydrolase. J. Bacteriol. 181: 5051-5059.). Therefore a 200 MHz narrow bore magnet (Varian Gemini™ 2000, Varian, Inc., Palo Alto, Calif.) and a 5 mm broadband probe head were used. The NMR tube was rotated at 20 rps. For a lock a D2O vortex capillary was added to avoid ^1H/D exchange reactions. The overwhelming water-signal was suppressed with a presaturation method (Guéron, M., P. Plateau and M. Decorps. 1991. Solvent signal suppression in NMR. Prog. NMR Spectrosc. 23: 135-209. Hore, J. P. 1989. Solvent suppression. p. 64. In N. J. Oppenheimer and J. T. James (eds.), Methods Enzymol. 176. Academic Press, Inc., San Diego.). The following parameters were adjusted for a ^1H-frequency of 200 MHz: presaturation-duration of 1.0 s, ^1H-pulse-angle of 90, an acquisition-time of 2.0 s and a relaxation delay of 1.5 s. 64 Scans were accumulated and after a zero filling to 32 k datapoints the free induction decay was Fourier transformed. The water signal (4.70 ppm) was used as a reference. For standard reaction analytics HPLC-measurements were performed (Hewlett-Packard, column: Aminex-HPX-87H, UV- and RI-detector, eluent Sulfuric acid 0.005 M).
The cleavage-stoichiometry of several non-symmetrical substrates was also investigated, in order to be able to determine the regiospecificity of the enzyme. This was done by conversion of the respective substrate with partially purified enzyme. Methylglyoxal and acetate formed were measured by HPLC. Remaining substrate was calculated.

[4] = molecular target: wild-type 1,3-dicarbonyl-dioxygenase (Acinetobacter johnsonii, UniProt Q8GNT2); assay: Relative activity of wild-type enzyme at non-limiting substrate concentrations; assay type: biochemical
Experimental: as §1, §2

[5] = molecular target: T2, recombinant 1,3-dicarbonyl-dioxygenase (expressed in E.coli) (Acinetobacter johnsonii, UniProt Q8GNT2); assay: Relative activity of recombinant protein at non-limiting substrate concentrations; assay type: biochemical
T2 construct: made in house; host or cells: E. coli XL1 Blue, plasmid pMS470 (tac promoter, NdeI/HindIII)
Experimental: Expression constructs were expressed in E.coli XL1 Blue (Stratagene, La Jolla, Calif.), which was grown to an OD of 1 at 30° C. on rotatory shakers in erlenmeyer flasks, then induced with IPTG (0.3 mM) and incubated for another 5 hours.
as §1, §2

[6] = molecular target: T1, 1,3-dicarbonyl-dioxygenase; assay type: biochemical
[7] = molecular target: T1, 1,3-dicarbonyl-dioxygenase; assay type: biochemical; remark: listed apart in the source
Experimental: The freshly prepared solutions of the respecitive inhibitors in buffer were added to partially purified enzyme, which then was incubated at room temperature.
The freshly prepared solutions of the respective inhibitors in buffer were added to partially purified enzyme, which then was incubated at room temperature. […] For reactivation, purified enzyme, which had previously been inactivated by incubation with o-phenantroline (1 mM), was incubated with Tris-buffer (20 mM, pH 7.5) containing the respective metal-salts (5 mM).

[8] = apparent, relative to acetylacetone = 1.00, purified wild-type enzyme
[9] = inhibitor 2.5 mM, 2 min incubation, 0.5 mM acetylacetone, pH 7.5
[10] = inhibitor 2.5 mM, 10 min incubation, 0.5 mM acetylacetone, pH 7.5

T2 sequence (Q8GNT2 whole entry): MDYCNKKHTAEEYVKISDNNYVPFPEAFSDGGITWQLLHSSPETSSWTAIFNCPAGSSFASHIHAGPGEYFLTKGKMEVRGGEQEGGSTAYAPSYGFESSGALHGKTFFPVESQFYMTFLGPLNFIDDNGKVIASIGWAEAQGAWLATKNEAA
wild-type 1,3-dicarbonyl-dioxygenase, sequence (Q8GNT2 whole entry): as above
T1 sequence (Q8GNT2 whole entry): as above

Compound: OCCS [mercaptoethanol]
- effect of potential stabilizing agent on enzyme stability [1]: did not enhance stability

Compound: CCCCC(=O)CC(C)=O [2,4-Octandion, 2,4-Octanedione]
- Vmaxrel. [2, 8]: 0.58
- KO2 ([2]; apparent): 85 ± 15 µM
- O2/Substrate [2]: 1.0
- Methylglyoxal/Acetate ([3]; substrate 4 mM): 0.5
- Substrate % (remaining) ([3]; substrate 4 mM): 18%
- Acetate % ([3]; substrate 4 mM): 55%
- Methylglyoxal % ([3]; substrate 4 mM): 27%
- Vmax wild-type [4]: 0.50
- Vmax clone [5]: 0.60

Compound: [Cl][Cu][Cl] [CuCl2]
- Relative activity [%] 2 min (reactivation) [6]: 0%
- Relative activity [%] 10 min (reactivation) [6]: 0%

Compound: CC(=O)c1ccccc1O [(2-Hydroxyphenyl-)-ethan-1-one]
- Vmaxrel. [2]: 0.00

Compound: O=C(O)CN(CCN(CC(=O)O)CC(=O)O)CC(=O)O [EDTA]
- Relative activity [%] 2 min [7]: 85%
- Relative activity [%] 10 min [7]: 36%

Compound: [N-]=[N+]=[N-].[Na+] [NaN3]
- Relative activity [%] 2 min ([7]; pH 7.5): 54%
- Relative activity [%] 10 min ([7]; pH 7.5): 38%

Compound: CC(=O)CC(=O)c1ccccc1 [1-Phenyl-1,3-butandion, 1-Phenyl-1,3-butanedione]
- Vmaxrel. [2, 8]: 0.15
- KO2 ([2]; apparent): 100 ± 15 µM
- O2/Substrate [2]: 1.0
- Methylglyoxal/Acetate ([3]; substrate 1.6 mM): 9
- Substrate % (remaining) ([3]; substrate 1.6 mM): 24%
- Acetate % ([3]; substrate 1.6 mM): 8%
- Methylglyoxal % ([3]; substrate 1.6 mM): 68%
- Vmax wild-type [4]: 0.05
- Vmax clone [5]: 0.08

Compound: OO [H2O2]
- Relative activity [%] 2 min [7]: 0%
- Relative activity [%] 10 min [7]: 0%
- inactivation of the enzyme (in words) [7]: complete inactivation

- Relative activity [%] 2 min [7, 9]: 62%
- Relative activity [%] 10 min [7, 10]: 23%
Compound: O=C1CCC(=O)O1 [Succinic anhydride]

Compound: O=S(=O)([O-])[O-].[Fe+2] [FeSO4]
- Relative activity [%] 2 min (reactivation) [6]: 14%
- Relative activity [%] 10 min (reactivation) [6]: 33%
- restoration of enzyme-activity (in words) [6]: partially restores the enzyme-activity

Compound: CC(=O)C(C)C(C)=O [3-Methylpentandion, 3-Methylpentanedione]
- acceptance as substrate (in words) [2]: quite good reaction rated
- Vmaxrel. [2, 8]: 0.25
- KO2 ([2]; apparent): 40 ± 8 µM
- O2/Substrate [2]: 1.0
- Substrate % (remaining) ([3]; substrate 4 mM): 18%
- Acetate % ([3]; substrate 4 mM): 82%
- Vmax wild-type [4]: 0.83
- Vmax clone [5]: 0.85

Compound: CC(=O)C1CCCC1=O (centres unmarked) [2-Acetocyclopentanone]
- acceptance as substrate (in words) [2]: quite good reaction rated
- Vmaxrel. [2, 8]: 0.52
- KO2 ([2]; apparent): 15 ± 5 µM
- O2/Substrate [2]: 1.0
- Acetate % ([3]; substrate 4 mM): 90%
- Vmax wild-type [4]: 0.31
- Vmax clone [5]: 0.43

Compound: [Cl][Ni][Cl] [NiCl2]
- Relative activity [%] 2 min (reactivation) [6]: 0%
- Relative activity [%] 10 min (reactivation) [6]: 0%

Compound: CoCl2
- Relative activity [%] 2 min (reactivation) [6]: 0%
- Relative activity [%] 10 min (reactivation) [6]: 0%

Compound: O=C(O)CI [Iodo-acetic-acid]
- Relative activity [%] 2 min ([7]; pH 7.5): 100%
- Relative activity [%] 10 min ([7]; pH 7.5): 72%

- Relative activity [%] 2 min [7, 9]: 88%
- Relative activity [%] 10 min [7, 10]: 85%
Compound: O=C(O)c1cc(SSc2ccc([N+](=O)[O-])c(C(=O)O)c2)ccc1[N+](=O)[O-] [DTNB, ‘5’-Dithio-bis-(2-dinitrobenzoic acid)]

Compound: Oc1ccccc1O [catechol]
- acceptance as substrate (in words) [2]: does not accept

Compound: O=S(=O)([O-])[O-].[Zn+2] [ZnSO4]
- Relative activity [%] 2 min (reactivation) [6]: 0%
- Relative activity [%] 10 min (reactivation) [6]: 0%

Compound: CC(=O)C(C)(C)C(C)=O [3,3-Dimethylpentanedione]
- Vmaxrel. [2]: 0.00

Compound: CCOC(=O)C(=O)CC(C)=O [2,4-Dioxo-pentanoic-acid-ethyl-ester]
- Vmaxrel. [2, 8]: 0.09
- KO2 ([2]; apparent): 91 ± 15 µM
- O2/Substrate [2]: 1.0
- Vmax wild-type [4]: 0.10
- Vmax clone [5]: 0.08

Compound: CC(=O)C1CCCCC1=O (centres unmarked) [2-Acetocyclohexanone]
- acceptance as substrate (in words) [2]: quite good reaction rated
- Vmaxrel. [2, 8]: 0.58
- KO2 ([2]; apparent): 21 ± 5 µM
- O2/Substrate [2]: 0.9
- Vmax wild-type [4]: 0.56
- Vmax clone [5]: 0.48

Compound: O=C(O)c1cc[c]([Hg][OH])cc1 [p-Hydroxymercurybenzoic acid]
- Relative activity [%] 2 min ([7]; pH 7.5): 56%
- Relative activity [%] 10 min ([7]; pH 7.5): 45%

Compound: Cc1cccc(O)c1O [methylcatechol]
- acceptance as substrate (in words) [2]: does not accept

Compound: [Cl][Fe]([Cl])[Cl] [FeCl3]
- Relative activity [%] 2 min (reactivation) [6]: 0%
- Relative activity [%] 10 min (reactivation) [6]: 0%

- Relative activity [%] 2 min [7, 9]: 18%
- Relative activity [%] 10 min [7, 10]: 12%
Compound: CCOC(=O)OC(=O)OCC [Diethyl-pyrocarbonate]

Compound: c1cnc2c(c1)ccc1cccnc12 [o-Phenantroline]
- Relative activity [%] 2 min [7]: 38%
- Relative activity [%] 10 min [7]: 10%

Compound: CC(=O)CC(=O)C(=O)O [2,4-Dioxo-pentanoic acid]
- Vmaxrel. [2]: 0.00
- acceptance as substrate (in words) [2]: not cleaved

Compound: CC(=O)CC(=O)C(C)(C)C [5,5-Dimethylhexan-2,4-dion, 5,5-Dimethylhexane-2,4-dione]
- acceptance as substrate (in words) [2]: cleaved at significantly lower rates
- Vmaxrel. [2, 8]: 0.25
- KO2 ([2]; apparent): 70 ± 15 µM
- O2/Substrate [2]: 0.9
- Methylglyoxal/Acetate ([3]; substrate 4 mM): 3.3
- Substrate % (remaining) ([3]; substrate 4 mM): 9%
- Acetate % ([3]; substrate 4 mM): 21%
- Methylglyoxal % ([3]; substrate 4 mM): 70%
- Vmax wild-type [4]: 0.05
- Vmax clone [5]: 0.08

Compound: O=C1CCCC(=O)C1 [1,3-Cyclohexanedione]
- Vmaxrel. [2]: 0.00
- acceptance as substrate (in words) [2]: not accepted as a substrate

Compound: COC(C)=CC(C)=O [4-Methoxy-3-penten-2-one]
- Vmaxrel. [2]: 0.00
- acceptance as substrate (in words) [2]: not accepted

Compound: CCCCCC(=O)CC(C)=O [2,4-Nonanedione]
- Vmaxrel. [2, 8]: 0.56
- KO2 ([2]; apparent): 112 ± 15 µM
- O2/Substrate [2]: 1.0
- Methylglyoxal/Acetate ([3]; substrate 4 mM): 1.4
- Substrate % (remaining) ([3]; substrate 4 mM): 17%
- Acetate % ([3]; substrate 4 mM): 35%
- Methylglyoxal % ([3]; substrate 4 mM): 48%
- Vmax wild-type [4]: 0.30
- Vmax clone [5]: 0.25

Compound: O=S(=O)([O-])[O-].[Mn+2] [MnSO4]
- Relative activity [%] 2 min (reactivation) [6]: 0%
- Relative activity [%] 10 min (reactivation) [6]: 0%

Compound: CCN=C=NCCCN(C)C [EDAC, 1-Ethyl-3-(3-dimethylaminopropyl)-carbodimide]
- Relative activity [%] 2 min [7, 9]: 100%
- Relative activity [%] 10 min [7, 10]: 95%
